Test results reported in the NIST ThermoML archive (doi:10.1021/je901026b).
Numbers after ± are expanded uncertainties.

Legend:
[1] = refractive index (Na D-line) (dimensionless); conditions: 293.15 K; 101.33 kPa; Liquid; Standard Abbe refractometry
[2] = Liquid; for mass density: 298.15 K, 101.33 kPa; for vapor or sublimation pressure: Ebulliometric method (Recirculating still)

Row | refractive index [1] | mass density [2] [kg/m3] | vapor or sublimation pressure ([2]; 318.13 K) [kPa] | vapor or sublimation pressure ([2]; 328.15 K) [kPa] | vapor or sublimation pressure ([2]; 338.15 K) [kPa] | vapor or sublimation pressure ([2]; 328.2 K) [kPa] | vapor or sublimation pressure ([2]; 338.28 K) [kPa] | Structure (SMILES)
1 | 1.38894 ± 0.00045 | 687.8 ± 1.3 | 15.85 ± 0.11 | 23.68 ± 0.14 | 34.4 ± 0.19 | – | – | CC(C)CC(C)(C)C [2,2,4-trimethylpentane]
2 | 1.38614 ± 0.00041 | 765.85 ± 0.66 | 23.96 ± 0.14 | 35.45 ± 0.19 | 51.05 ± 0.25 | 35.45 ± 0.19 | 51.05 ± 0.25 | CCC(C)(C)OC [2-methoxy-2-methylbutane]
3 | – | 780.44 ± 0.64 | 17.95 ± 0.12 | – | – | 30.35 ± 0.17 | 48.93 ± 0.24 | CC(C)(C)O [2-methylpropan-2-ol]
